# Marks after values point to notes of the source that are not given here.
# Columns and labels:
# [1] = tested on: Sply^05091 homozygous flies; assay: LCB/LCBP levels in Sply^05091 homozygous flies grown on sphingosine kinase inhibitor (HPLC); type: in vivo, Drosophila melanogaster
# Method: (§1) Analysis of Drosophila sphingolipids: 100 mg of flies were homogenized in 6 ml of ice cold methanol/water 1:1 (vol:vol) with a Potter-Elvehjem homogenizer with a loose pestle followed by a tight pestle until the pestle moved smoothly. Extract was further homogenized by tip sonication for 3 times 20 sec. Extract was spun at low speed and supernatant was removed and dried down in speed vac. Extract was resuspended in 500 μl of methanol containing 0.1M ammonium hydroxide and incubated for 1 hour at 37° C. Following incubation the extract was dried down in speed vac. Extract was resuspended in 500 μl of 50% methanol containing 0.1% glacial acetic acid and applied to a C18E STRATA solid phase extraction column. C18E STRATA column was washed with 50% methanol containing 0.1% glacial acetic acid followed by a wash with 100% methanol containing 0.1% glacial acetic acid. Lipids of interest were eluted with methanol/10 mM ammonium acetate, 9:1 (vol:vol). Lipids were dried down in speed vac. and o-pthaladehyde labeled for HPLC analysis as previously described (Kim, S., Fyrst, H. and Saba, J. (2000). Genetics 156, 1519-29.).
# [2] = tested on: Sply^05091 homozygous flies; assay: Adult flight performance of Sply^05091 homozygous flies grown on sphingosine kinase inhibitor; type: in vivo, Drosophila melanogaster
# wild type flies = assay: LCBP levels in wild type flies grown on sphingosine kinase inhibitor; type: in vivo, Drosophila melanogaster; details: wild type flies grown on D,L-threo-DHS
# Method: as §1
# bst1Δ cells = assay: Sphingosine sensitivity (growth) of SPL-deleted yeast; type: cell-based, S. cerevisiae
# Source text: Within certain embodiments, an in vitro assay for SPL activity may be performed using cellular extracts prepared from cells that express the polypeptide of interest. […] It has been found, within the context of the present invention, that yeast cells containing deletion of the SPL gene (BST1) are suitable for use in evaluating the SPL activity of a polypeptide. bst1Δ cells can be generated from S. cerevisiae using standard techniques, such as PCR, as described herein. […] For such a test, a polypeptide is preferably expressed on a high-copy yeast vector (such as pYES2, which is available from Invitrogen) yielding more than 20 copies of the gene per cell. In general, a polypeptide has SPL activity if, when expressed using such a vector in a bst1Δ cell, a cellular extract results in a two-fold increase in substrate degradation over the level observed for an extract prepared from cells not expressing the polypeptide.
# (§2) A further test for SPL activity may be based upon functional complementation in the bst1Δ strain. It has been found, within the context of the present invention, that bst1Δ cells are highly sensitive to D-erythro-sphingosine.
# Functional complementation in yeast: Strains of interest were grown to saturation in liquid culture for 2-3 days. […] Plates were incubated at 30° C. for two days and assessed visually for differences in growth.
# wildtype cells = assay: Sphingosine sensitivity (growth) of wildtype yeast; type: cell-based, S. cerevisiae; details: 10 μM sphingosine
# Method: as §2
# Functional complementation in yeast: Strains of interest were grown to saturation in liquid culture for 2-3 days. They were then resuspended in minimal medium, placed in the first row of a 96-well plate and diluted serially from 1:2 to 1:4000 across the plate. […] Louis, Mo.). […] At this concentration of NP40, no effects on cell viability are observed. Plates were incubated at 30° C. for two days and assessed visually for differences in growth.
# [3] = Sply^05091 homozygous flies + 1 mM D,L-threo-DHS, separate experiment, mixed-age adults
smiles,measurement,setting,value
"CCCCCCCCCCCCCCC[C@H](O)[C@@H](N)CO [D,L-threo-DHS, D,L-threo-dihydrosphingosine]",Reduction of LCBP levels,[1]; Sply^05091 homozygotes grown in the presence of sphingosine kinase inhibitor,approximately 20%
same,"C14/16 LCBPs, percentage of untreated controls",[1]; [3],81%*
same,"C14/16 LCBs, percentage of untreated controls",[1]; [3],136%*
same,Average flight score,"[2]; Sply^05091 + 1 mM D,L-threo-DHS, score upward=3, lateral=2, downward=1, flightless=0, ±s.e.m., untreated Sply^05091 0.40 ± 0.036",0.62 ± 0.057
same,Flight performance,"[2]; Sply^05091 mutants grown on media supplemented with 10 μM D,L-threo-DHS, F2 progeny",slight but significant improvement in flight performance
same,"LCBP levels, % of normal levels",wild type flies,20%
CCCCCCCCCCCCC/C=C/[C@@H](O)[C@@H](N)CO [D-erythro-sphingosine],Growth of bst1Δ cells,bst1Δ cells; concentrations as low as 10 μM sphingosine,completely inhibit the growth
same,Proliferation of dpl1Δ strain,bst1Δ cells; media containing low concentrations of D-erythro-sphingosine,cannot proliferate
same,Growth of wildtype cells,wildtype cells,no effect on the growth

# Reference: patent publication US7674580B2, “Compositions and methods for the modulation of sphingolipid metabolism and/or signaling” (priority 2002, dated 2010)
